Experimental data taken from patent US20230043863A1, “HETEROAROMATIC DERIVATIVES FOR USE AS REGULATOR, PREPARATION METHOD THEREFOR AND USE THEREOF” (JIANGSU HANSOH PHARMACEUTICAL GROUP CO., LTD., priority 2018, published 2023).
Like-named read-outs stand apart in the source and are kept apart here.

Legend:
JAK3 = molecular target: T1, JAK3 (Homo sapiens, UniProt P52333); assay: JAK kinase activity inhibition, TR-FRET (JAK3); assay type: biochemical; conditions: TR-FRET kinase assay
T1 sequence (P52333 1-1124): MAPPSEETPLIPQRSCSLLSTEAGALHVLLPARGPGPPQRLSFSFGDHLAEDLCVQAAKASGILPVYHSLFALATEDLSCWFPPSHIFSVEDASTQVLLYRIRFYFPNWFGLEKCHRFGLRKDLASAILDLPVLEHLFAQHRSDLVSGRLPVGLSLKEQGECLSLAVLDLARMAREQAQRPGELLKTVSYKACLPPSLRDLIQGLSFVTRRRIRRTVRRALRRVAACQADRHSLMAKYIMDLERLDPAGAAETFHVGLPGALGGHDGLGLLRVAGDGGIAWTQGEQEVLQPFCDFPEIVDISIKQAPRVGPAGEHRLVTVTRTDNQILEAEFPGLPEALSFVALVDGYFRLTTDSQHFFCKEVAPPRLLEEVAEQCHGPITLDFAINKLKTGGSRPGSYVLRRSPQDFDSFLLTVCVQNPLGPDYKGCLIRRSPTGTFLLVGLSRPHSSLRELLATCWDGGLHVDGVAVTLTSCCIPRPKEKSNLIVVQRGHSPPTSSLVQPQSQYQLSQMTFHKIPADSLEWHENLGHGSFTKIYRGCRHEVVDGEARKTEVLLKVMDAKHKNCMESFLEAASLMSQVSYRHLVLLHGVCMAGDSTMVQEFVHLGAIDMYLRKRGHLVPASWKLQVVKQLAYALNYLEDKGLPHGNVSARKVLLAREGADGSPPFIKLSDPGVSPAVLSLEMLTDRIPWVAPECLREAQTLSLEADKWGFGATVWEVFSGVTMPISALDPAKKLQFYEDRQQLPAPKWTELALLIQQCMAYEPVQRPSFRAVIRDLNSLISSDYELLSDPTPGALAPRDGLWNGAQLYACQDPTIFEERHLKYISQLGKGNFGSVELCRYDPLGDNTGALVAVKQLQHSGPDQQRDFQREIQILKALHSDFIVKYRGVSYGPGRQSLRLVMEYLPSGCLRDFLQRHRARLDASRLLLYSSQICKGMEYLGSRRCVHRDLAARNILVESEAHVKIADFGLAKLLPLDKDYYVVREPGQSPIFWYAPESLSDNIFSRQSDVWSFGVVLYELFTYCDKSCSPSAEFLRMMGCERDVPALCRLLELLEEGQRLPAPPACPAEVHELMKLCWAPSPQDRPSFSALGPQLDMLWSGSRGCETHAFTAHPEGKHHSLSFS
Experimental: (§1) Experimental objective: The objective of this test is to test the inhibitory effect of the compound on JAK kinase activity.
(§2) Experimental method: the fluorescence resonance energy transfer (TR-FRET) method was used to test the inhibitory effect of the compound on JAK kinase activity, and the half inhibitory concentration IC50 of the compound on JAK kinase activity was obtained.
(§3) Kinase reaction was carried out in a white 384-well plate (PerkinElmer). 1-5 μL of different concentrations of the compound diluted with DMSO and ddH2O was added into each well, and 1-5 μL of the corresponding solvent was added to the positive control wells, followed by addition of 0.1-20 nM JAK kinase solution diluted with 1-5 μL of kinase buffer (HEPES 50-250 mM, MgCl2 5-20 mM, etc.) was added to each well. 1-5 μL of kinase buffer was added to the negative control well. 1-5 μL of substrate mixture containing peptide substrate and ATP was added. The plate was incubated at room temperature for 0.5-5 hours. […], EDTA and detection solution containing labeled antibody was added, and then the plate was incubated at room temperature for another 1-24 hours. The fluorescence signal value at about 620 nm and 665 nm of each well was measured by BioTek Synergy H1 plate reader, and the inhibition rate was calculated by the fluorescence signal value. According to the inhibition rate of different concentrations, the IC50 of the compound was obtained by curve fitting.
(§4) The percentage inhibition data of the wells treated with the compound was calculated with the positive control wells (DMSO control wells) and negative control wells (no kinase added) on the plate {% inhibition rate=100-[(test compound value-negative control value)]/(Positive control value-negative control value)×100}. IC50 value was calculated by using GraphPad prism to fit the data of different concentrations and corresponding percentage inhibition rates to a 4-parameter non-linear logic formula.

TYK2 = TYK2 (Homo sapiens, UniProt P29597); assay: JAK kinase activity inhibition, TR-FRET (TYK2); assay type: biochemical; conditions: TR-FRET kinase assay
TYK2, sequence (P29597 whole entry): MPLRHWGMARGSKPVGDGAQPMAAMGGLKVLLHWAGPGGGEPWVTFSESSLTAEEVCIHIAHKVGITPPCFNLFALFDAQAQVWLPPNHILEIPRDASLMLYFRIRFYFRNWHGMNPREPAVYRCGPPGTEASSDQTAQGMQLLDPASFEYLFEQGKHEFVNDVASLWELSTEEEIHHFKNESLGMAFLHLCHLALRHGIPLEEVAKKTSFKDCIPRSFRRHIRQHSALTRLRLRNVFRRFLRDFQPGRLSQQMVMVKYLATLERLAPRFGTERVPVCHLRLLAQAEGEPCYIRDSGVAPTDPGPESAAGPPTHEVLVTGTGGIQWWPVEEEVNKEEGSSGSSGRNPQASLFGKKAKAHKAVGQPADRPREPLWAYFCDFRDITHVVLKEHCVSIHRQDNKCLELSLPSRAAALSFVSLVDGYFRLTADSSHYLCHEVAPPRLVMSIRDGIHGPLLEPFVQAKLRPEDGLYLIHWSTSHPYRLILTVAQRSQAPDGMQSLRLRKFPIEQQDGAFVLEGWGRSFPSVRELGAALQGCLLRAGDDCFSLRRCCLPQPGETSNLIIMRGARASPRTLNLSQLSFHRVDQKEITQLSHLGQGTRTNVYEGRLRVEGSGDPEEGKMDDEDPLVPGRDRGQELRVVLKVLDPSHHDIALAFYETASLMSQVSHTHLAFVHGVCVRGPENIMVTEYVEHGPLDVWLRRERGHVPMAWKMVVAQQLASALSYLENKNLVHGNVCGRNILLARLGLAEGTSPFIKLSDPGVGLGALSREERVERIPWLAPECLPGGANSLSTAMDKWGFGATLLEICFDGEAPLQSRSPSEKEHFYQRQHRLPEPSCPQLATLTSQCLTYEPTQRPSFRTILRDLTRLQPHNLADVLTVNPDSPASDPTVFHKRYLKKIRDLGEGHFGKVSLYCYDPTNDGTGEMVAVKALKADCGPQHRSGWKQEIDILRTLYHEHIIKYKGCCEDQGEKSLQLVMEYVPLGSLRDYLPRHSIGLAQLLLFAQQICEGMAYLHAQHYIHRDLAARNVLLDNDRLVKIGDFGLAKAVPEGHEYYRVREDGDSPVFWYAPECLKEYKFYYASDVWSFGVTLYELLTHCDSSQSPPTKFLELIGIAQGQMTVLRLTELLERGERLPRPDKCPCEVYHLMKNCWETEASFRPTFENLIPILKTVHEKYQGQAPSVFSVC
Procedure, shortened: (§5)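 Enzymatic inhibition measured by time-resolved FRET using 0.1-20 nM kinase with peptide substrate and ATP, reacted 0.5-5 hours at room temperature. Percent inhibition was normalized to DMSO (no inhibitor) and kinase-free wells, and concentration-response data were fitted with a 4-parameter logistic model.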

JAK1 = JAK1 (Homo sapiens, UniProt P23458); assay: JAK kinase activity inhibition, TR-FRET (JAK1); assay type: biochemical; conditions: TR-FRET kinase assay
JAK1, sequence (P23458 whole entry): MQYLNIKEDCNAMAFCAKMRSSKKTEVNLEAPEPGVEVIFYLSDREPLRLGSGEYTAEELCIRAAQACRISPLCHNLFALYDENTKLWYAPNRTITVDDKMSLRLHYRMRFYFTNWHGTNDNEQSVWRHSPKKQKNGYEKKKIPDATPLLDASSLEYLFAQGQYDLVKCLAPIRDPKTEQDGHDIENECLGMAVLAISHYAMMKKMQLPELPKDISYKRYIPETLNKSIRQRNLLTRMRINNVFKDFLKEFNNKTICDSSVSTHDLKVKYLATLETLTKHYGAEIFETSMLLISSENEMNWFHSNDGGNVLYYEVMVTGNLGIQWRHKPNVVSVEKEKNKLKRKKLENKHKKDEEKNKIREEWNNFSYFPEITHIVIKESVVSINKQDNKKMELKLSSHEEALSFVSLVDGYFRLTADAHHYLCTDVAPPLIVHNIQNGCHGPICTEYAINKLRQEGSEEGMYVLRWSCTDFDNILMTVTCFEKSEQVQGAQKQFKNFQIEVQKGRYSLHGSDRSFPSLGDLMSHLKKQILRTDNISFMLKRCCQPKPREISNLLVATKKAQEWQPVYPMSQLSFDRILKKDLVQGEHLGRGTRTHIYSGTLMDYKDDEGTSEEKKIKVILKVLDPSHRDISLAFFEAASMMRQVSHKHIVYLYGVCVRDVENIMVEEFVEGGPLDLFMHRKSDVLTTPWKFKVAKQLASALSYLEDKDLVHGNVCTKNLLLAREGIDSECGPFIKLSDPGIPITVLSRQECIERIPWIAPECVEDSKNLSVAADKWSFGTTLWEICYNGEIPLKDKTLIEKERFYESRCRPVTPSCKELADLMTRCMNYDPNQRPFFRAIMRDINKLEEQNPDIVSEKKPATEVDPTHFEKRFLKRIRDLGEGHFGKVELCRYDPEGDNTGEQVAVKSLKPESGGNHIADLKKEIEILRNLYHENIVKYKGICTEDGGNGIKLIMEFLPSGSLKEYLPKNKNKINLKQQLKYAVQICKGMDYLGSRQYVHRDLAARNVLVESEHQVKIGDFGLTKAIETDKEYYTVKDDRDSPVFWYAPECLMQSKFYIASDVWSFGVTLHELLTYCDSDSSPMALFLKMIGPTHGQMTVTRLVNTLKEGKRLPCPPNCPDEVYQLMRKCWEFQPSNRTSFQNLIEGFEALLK
Procedure, shortened: as §5

JAK2 = JAK2 (Homo sapiens, UniProt O60674); assay: JAK kinase activity inhibition, TR-FRET (JAK2); assay type: biochemical; conditions: TR-FRET kinase assay
JAK2, sequence (O60674 whole entry): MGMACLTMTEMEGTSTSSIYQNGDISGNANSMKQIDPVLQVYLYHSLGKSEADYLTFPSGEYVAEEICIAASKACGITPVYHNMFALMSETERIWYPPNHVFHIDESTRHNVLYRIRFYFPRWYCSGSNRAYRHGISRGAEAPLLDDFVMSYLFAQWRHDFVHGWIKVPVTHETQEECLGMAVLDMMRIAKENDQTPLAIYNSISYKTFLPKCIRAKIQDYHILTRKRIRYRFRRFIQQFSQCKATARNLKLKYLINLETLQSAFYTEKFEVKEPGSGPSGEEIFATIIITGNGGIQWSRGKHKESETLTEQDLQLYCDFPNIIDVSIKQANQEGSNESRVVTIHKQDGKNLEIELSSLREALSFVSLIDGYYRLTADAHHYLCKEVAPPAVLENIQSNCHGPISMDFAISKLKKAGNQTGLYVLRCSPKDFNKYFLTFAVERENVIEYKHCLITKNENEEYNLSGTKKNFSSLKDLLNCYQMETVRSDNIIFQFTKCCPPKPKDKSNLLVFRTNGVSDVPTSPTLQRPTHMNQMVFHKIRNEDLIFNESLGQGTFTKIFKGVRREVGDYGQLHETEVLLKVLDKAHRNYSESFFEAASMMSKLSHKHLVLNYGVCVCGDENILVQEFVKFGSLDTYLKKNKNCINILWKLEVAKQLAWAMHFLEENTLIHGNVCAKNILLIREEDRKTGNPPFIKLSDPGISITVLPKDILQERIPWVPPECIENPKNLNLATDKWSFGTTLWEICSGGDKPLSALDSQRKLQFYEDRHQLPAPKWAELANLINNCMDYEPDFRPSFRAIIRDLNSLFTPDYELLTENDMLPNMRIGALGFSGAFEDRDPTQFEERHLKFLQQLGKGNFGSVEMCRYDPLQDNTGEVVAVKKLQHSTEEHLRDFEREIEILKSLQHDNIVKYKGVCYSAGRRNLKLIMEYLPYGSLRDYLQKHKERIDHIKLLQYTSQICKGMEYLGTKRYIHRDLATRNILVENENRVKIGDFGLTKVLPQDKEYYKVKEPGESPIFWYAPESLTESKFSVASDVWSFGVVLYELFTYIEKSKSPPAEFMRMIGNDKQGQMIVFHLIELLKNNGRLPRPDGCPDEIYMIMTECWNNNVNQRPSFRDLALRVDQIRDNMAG
Experimental: as §1, §2, §3, §4

[1] = tested on: JAK-STAT signal pathway of U266 cells; assay: Inhibition of cellular JAK-STAT signal pathway (STAT3 phosphorylation) in U266 cells; assay type: cell-based, human; conditions: Homo sapiens, U-266, INF-a 1000 U/mL stimulation
Procedure, shortened: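 U266 cells (100-300 K/well) preincubated 2 h at room temperature with serially diluted compound, then stimulated 15 min with IFN-α at 1000 U/mL final. After lysis, STAT3 phosphorylation read by LANCE Ultra TR-FRET (Eu antibody 0.5 nM, ULight antibody 5 nM, overnight) at 665 nm; IC50 from 4-parameter fit of inhibition versus DMSO and negative controls.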

[2] = Balb/C mouse pharmacokinetics (plasma, colon, ileum); assay type: in vivo; conditions: male, po, Balb/C mice, p.o. 5 mg/kg; for Cmax: read-out: Blood concentration Cmax; for AUC(0-t): read-out: Curve area AUC0-t; for MRT: read-out: Mean detention time MRT; for Tmax: read-out: Time to peak tmax; for AUC(0-inf): read-out: Curve area AUC0-∞; for half-life: read-out: Half life period t1/2 (converted)
Excerpt: Balb/C mouse was used as the test animal, the pharmacokinetic behavior in mice (plasma and colon, ileum tissue) was studied after oral administering the embodiment 1, embodiment 60, embodiment 169, embodiment 170, embodiment 171, embodiment 179, embodiment 191, embodiment 213, embodiment 214, embodiment 237, embodiment 238, embodiment 244, embodiment 246, embodiment 247, embodiment 257, embodiment 260, embodiment 262, embodiment 263, embodiment 267, embodiment 277, embodiment 278, embodiment 279, embodiment 288, embodiment 295, embodiment 299 and embodiment 301 at a dose of 5 mg/kg. After analyzing the drug concentration in the colon and ileum, the ratio of the drug concentration in the colon to that in ileum, and the ratio of the drug concentration in the colon to that in the plasma, the compounds with excellent PK were selected for further research.
12 Balb/C mice in each group, male, Shanghai Jiesjie Experimental Animal Co., Ltd., animal production license number (SCXK (Shanghai) 2013-0006 N0.311620400001794).
12 Balb/C mice in each group, male; p.o. after one night fast; the dose was 5 mg/kg; the administration volume was 10 mL/kg.
At 0, 0.5, 1, 2, 3, 5 and 7 hours before and after the administration, the mice were executed by CO2 and 0.2 mL of blood was collected from the heart, placed in an EDTA-K2 test tube, and centrifuged at 6000 rpm at 4° C. for 6 minutes to separate the plasma, which was then stored at −80° C. The ileum was taken close to the cecum end with a length of about 4-5 cm, and the colon was also taken close to the cecum end with a length of about 2-3 cm, weighed and placed in a 2 mL centrifuge tube, then stored at −80° C.
1) 40 uL of plasma sample was precipitated by adding 160 uL of acetonitrile, mixed and centrifuged at 3500×g for 5-20 minutes.
2) 30 μL of plasma and intestinal homogenate sample were precipitated by adding 90 of acetonitrile containing internal standard (100 ng/mL), mixed and centrifuged at 13000 rpm for 8 minutes.
3) 70 μL of the supernatant solution after treatment was collected and 70 μL of water was added thereto, vortexed and mixed for 10 minutes, and then 20 μL was collected to analyze the concentration of the test compound by LC/MS/MS. LC/MS/MS analysis instrument: AB Sciex API 4000 Qtrap.
Liquid phase conditions: Shimadzu LC-20AD Pump
Chromatographic column: Agilent ZORBAX XDB-C18 (50×2.1 mm, 3.5 μm) mobile phase: 0.1% formic acid aqueous solution as A solution, acetonitrile as B solution
Elution time: 0-4.0 minutes, the eluent is as follows:
The main pharmacokinetic parameters were calculated with WinNonlin 6.1, and the results of mouse pharmacokinetic experiments are shown in Table 3:
NA refers to none detected or not being tested (the detection limit of blood concentration was 1 ng/mL, when the Cmax in the blood test is NA, then NA in the blood test index refers to none detected; when the Cmax in the blood test is higher than the quantitative limit 1 ng/mL, then NA in the blood test index refers to not being tested; NA in the tissues (colon and ileum) refers to not being tested).

## Cc1cc(Nc2nc(N[C@@H]3C[C@H]4CC[C@@H](C3)N4CCC#N)nc3cc(-c4cnn(C)c4)ccc23)n[nH]1 [Embodiment 186, 3-((3-exo)-3-((4-((5-methyl-1H-pyrazol-3-yl)amino)-7-(1-methyl-1H-pyrazol-4-yl)quinazolin-2-yl)amino)-8-azabicyclo[3.2.1]oct-8-yl)propionitrile]
JAK3
  IC50: 14.7 nM
TYK2
  IC50: 0.2 nM
JAK1
  IC50: 0.12 nM
JAK2
  IC50: 0.73 nM

## Cc1cc(Nc2cc3ncccc3c(N3CC4CCC(C3)N4CCC#N)n2)n[nH]1 [Embodiment 109, 3-(3-(7-((5-methyl-1H-pyrazol-3-yl)amino)-1,6-diazanaphthalen-5-yl)-3,8-diazabicyclo[3.2.1]oct-8-yl)propionitrile]
JAK3
  IC50: 25.9 nM
TYK2
  IC50: 33.9 nM
JAK1
  IC50: 7.85 nM
JAK2
  IC50: 6.27 nM

## N#CCCN1[C@@H]2CC[C@H]1C[C@H](Nc1nc(Nc3cnccn3)cc3ncccc13)C2 [Embodiment 29, 3-((3-exo)-3-((7-(pyrazin-2-ylamino)-1,6-diazanaphthalen-5-yl)amino)-8-azabicyclo[3.2.1]oct-8-yl)propionitrile]
JAK3
  IC50: > 100 nM
TYK2
  IC50: 47.3 nM
JAK1
  IC50: 44.2 nM
JAK2
  IC50: > 100 nM

## Cc1cc(Nc2nc(N[C@@H]3C[C@H]4CC[C@@H](C3)N4CCC#N)nc3cnccc23)n[nH]1 [Embodiment 173, 3-((3-exo)-3-((4-((5-methyl-1H-pyrazol-3-yl)amino)pyrido[3,4-d]pyrimidin-2-yl)amino)-8-azabicyclo[3.2.1]oct-8-yl)propionitrile]
JAK3
  IC50: 26.3 nM
TYK2
  IC50: 0.84 nM
JAK1
  IC50: 1.07 nM
JAK2
  IC50: 1.15 nM

## N#CCCN1[C@@H]2CC[C@H]1C[C@H](Nc1nc(Nc3ncc(CO)s3)cc3ncccc13)C2 [Embodiment 2]
JAK3
  IC50: 8.95 nM
TYK2
  IC50: 2.3 nM
JAK1
  IC50: 0.11 nM
JAK2
  IC50: 0.53 nM

## Cc1cc(Nc2nc(N[C@@H]3C[C@H]4CCC[C@@H](C3)N4S(=O)(=O)c3ccccn3)nc3sccc23)n[nH]1 [Embodiment 267]
[1]
  IC50: 18 nM
[2]; colon
  Cmax: 1270 ng/mL
  AUC(0-t): 5610 ng·h/mL
  MRT: 4.4 h
  Tmax: 5 h
[2]; ileum
  Cmax: 12200 ng/mL
  AUC(0-t): 20700 ng·h/mL
  AUC(0-inf): 20700 ng·h/mL
  half-life: 0.53 h
  MRT: 1.24 h
  Tmax: 1 h
TYK2
  IC50: 0.39 nM
JAK1
  IC50: 0.13 nM

## Cc1cc(Nc2nc(N[C@@H]3C[C@H]4CC[C@@H](C3)N4CCC#N)nc3cc(-c4cccnc4)ccc23)n[nH]1 [Embodiment 179, 3-((3-exo)-3-((4-((5-methyl-1H-pyrazol-3-yl)amino)-7-(pyridin-3-yl)quinazolin-2-yl)amino)-8-azabicyclo[3.2.1]oct-8-yl)propionitrile]
[1]
  IC50: 9.84 nM
[2]; plasma, blood
  Cmax: 3.8 ng/mL
  AUC(0-t): 6.76 ng·h/mL
  MRT: 1.66 h
  Tmax: 0.5 h
[2]; colon
  Cmax: 485 ng/mL
  AUC(0-t): 2040 ng·h/mL
  AUC(0-inf): 2180 ng·h/mL
  half-life: 1.49 h
  MRT: 2.83 h
  Tmax: 1 h
[2]; ileum
  Cmax: 2330 ng/mL
  AUC(0-t): 10300 ng·h/mL
  MRT: 2.88 h
  Tmax: 3 h
TYK2
  IC50: 0.47 nM
JAK1
  IC50: 0.44 nM
